Earlier results on three compounds are cited in US8618286B2, “Benzoxazines, benzothiazines, and related compounds having NOS inhibitory activity” (NeurAxon, Inc., priority 2008, dated 2013).

The structures appear in SMILES notation.

For data set [1], the system named is cardiogenic shock. The following applies: human, randomized trial of 30 patients; reduced from 67%; cited from earlier work.
The test system of data set [2] is migraine attack. The following applies: human, open pilot study; cited from earlier work.
In data set [3] the test system is migraine. Particulars: human, single i.v. administration; cited from earlier work.
Data set [4] deals with persistent shock. Particulars: human, up to 30 days; cited from earlier work.

Turning to `COC(=O)[C@@H](N)CCCNC(=N)N[N+](=O)[O-]` [L-NAME, N^G-Nitro-L-arginine methyl ester], in data set [1], the patient mortality was 27%.
`C/C1=C2/[N-][C@H]([C@H](CC(N)=O)[C@@]2(C)CCC(=O)NC[C@@H](C)OP(=O)([O-])O[C@H]2[C@@H](O)[C@@H](n3cnc4cc(C)c(C)cc43)O[C@@H]2CO)[C@]2(C)N=C(/C(C)=C3N=C(/C=C4N=C1[C@@H](CCC(N)=O)C\4(C)C)[C@@H](CCC(N)=O)[C@]\3(C)CC(N)=O)[C@@H](CCC(N)=O)[C@]2(C)CC(N)=O.[Co+3].[OH-]` [hydroxycobalamin]: in data set [2], the “patients with a reduction in the frequency of migraine attack of 50%” value is on record as 53%.
As to `CN=C(N)NCCC[C@H](N)C(=O)O.Cl` [L-NMMA, L-N^G methylarginine hydrochloride], in data set [3], the response rate was 67%. The survival rate in data set [4] is 72%.
